Reference: the Bradley open melting point set (2014)

Point of comparison: CC(C)(C)c1ccc2c(c1)OCCOCCOc1cc(C(C)(C)C)ccc1OCCOCCO2 [4',4''(5'')-di-tert-butyldibenzo-18-crown-6], melting point 110 °C. Against it:
- O=C(O)c1sc2ccccc2c1Cl [3-chlorobenzo[b]thiophene-2-carboxylic acid] — higher, 266 °C
- O=C(c1ccccc1)c1cccc(Cl)c1 [3-chlorobenzophenone] — lower, 83 °C
- Oc1cccc(Cl)c1 [3-chlorophenol] — lower, 32.5 °C
- O=C(O)COc1cccc(Cl)c1 [3-chlorophenoxyacetic acid] — lower, 108 °C
- Cc1cccc(Cl)c1 [3-chlorotoluene] — lower, -48 °C
- N#Cc1cccc(C=O)c1 [3-cyanobenzaldehyde] [listing 1 of 2 here] — lower, 77 °C
- N#Cc1cccc(C=O)c1 [3-cyanobenzaldehyde] [listing 2 of 2 here] — lower, 77 °C
- N#Cc1cccc(O)c1 [3-cyanophenol] — lower, 82 °C
- N#Cc1ccc[n+]([O-])c1 [3-cyanopyridine 1-oxide] — higher, 177 °C
- CCC1(OC(C)=O)CCC2(C)C(CCC3C4CCC(=O)C4(C)CCC32)C1 (stereo unspecified) [3-ethyl-17-oxoandrostan-3-yl acetate] — higher, 126 °C
- CCc1cccc(O)c1 [3-ethylphenol] — lower, -4 °C
- O=C(O)Cc1ccc(O)c(F)c1 [3-fluoro-4-hydroxyphenylacetic acid] — higher, 132 °C
- Cc1ccc(B(O)O)cc1F [3-fluoro-4-methylbenzeneboronic acid] — higher, 234 °C
- OB(O)c1cccc(F)c1 [3-fluorobenzeneboronic acid] — higher, 214 °C
- Oc1cccc(F)c1 [3-fluorophenol] — lower, 12 °C
- O=C(O)Cc1cccc(F)c1 [3-fluorophenylacetic acid] — lower, 46 °C
- O=Cc1cccc(B(O)O)c1 [3-formylbenzeneboronic acid] — higher, 111 °C
- CCCCC(=O)CC [3-heptanone] — lower, -37 °C
- Cc1ncccc1O [3-hydroxy-2-methylpyridine] — higher, 168 °C
- COc1ccc(-c2oc3c(OC)c(OC)ccc3c(=O)c2O)cc1 [3-hydroxy-4',7,8-trimethoxyflavone] — higher, 198 °C
- Cc1ccc(C)c2c1C(=O)OC2O (stereo unspecified) [3-hydroxy-4,7-dimethyl-2-benzofuran-1(3H)-one] — higher, 158 °C
- CC(=O)c1cccc(O)c1 [3-hydroxyacetophenone] — lower, 89 °C
- C[C@]12CCC(O)CC1=CC(=O)[C@@H]1[C@@H]2CC[C@]2(C)C(=O)CC[C@@H]12 (stereo partly specified) [3-hydroxyandrost-5-ene-7,17-dione] — higher, 238 °C
- O=Cc1cccc(O)c1 [3-hydroxybenzaldehyde] — lower, 105 °C
- OB(O)c1cccc(O)c1 [3-hydroxybenzeneboronic acid] — higher, 209 °C
- O=C(O)c1cccc(O)c1 [3-hydroxybenzoic_acid] — higher, 203 °C
- Oc1cccc(I)c1 [3-iodophenol] — lower, 41 °C
- O=C(O)CCI [3-iodopropionic acid] — lower, 82 °C
- COc1cc(N)ccc1C [3-methoxy-4-methylaniline] — lower, 58 °C
- COc1cccc(C(N)=O)c1 [3-methoxybenzamide] — higher, 133 °C
- COc1cccc(B(O)O)c1 [3-methoxybenzeneboronic acid] — higher, 160 °C
- C=CC(C)CC (stereo unspecified) [3-methyl-1-pentene] — lower, -153 °C
- CC1=CC(O)(c2ccccc2)c2ccccc21 (stereo unspecified) [3-methyl-1-phenyl-1H-inden-1-ol] — lower, 76 °C
- CC(=O)C(C)C [3-methyl-2-butanone] — lower, -92 °C
- Cc1n[nH]cc1-c1ccccc1 [3-methyl-4-phenyl-1h-pyrazole] — higher, 142 °C
- Cc1cc(-c2ccccc2)[nH]n1 [3-methyl-5-phenyl-1h-pyrazole] — higher, 126 °C
- Cc1cccc(B(O)O)c1 [3-methylbenzeneboronic acid] — higher, 161 °C
- CC(C)CC(=O)O [3-methylbutanoic_acid] — lower, -30 °C
- CCC(C)CC [3-methylpentane] — lower, -118 °C
- CCC(C)CC(=O)O (stereo unspecified) [3-methylvaleric acid] — lower, -42 °C
- O=Cc1ccc(N2CCCC2)c([N+](=O)[O-])c1 [3-nitro-4-(1-pyrrolidinyl)benzaldehyde] — lower, 103 °C
- O=[N+]([O-])c1cccc(CBr)c1 [3-nitrobenzyl_bromide] — lower, 59 °C
- O=[N+]([O-])c1cccc(O)c1 [3-nitrophenol] — lower, 96 °C
- O=C=Nc1cccc([N+](=O)[O-])c1 [3-nitrophenyl isocyanate] — lower, 52 °C
- O=[N+]([O-])c1cccc(N=C=S)c1 [3-nitrophenyl isothiocyanate] — lower, 57 °C
- C=Cc1cccc([N+](=O)[O-])c1 [3-nitrostyrene] — lower, -5 °C
- CCCCCC(O)CC (stereo unspecified) [3-octanol] [listing 1 of 2 here] — lower, -45 °C
- CCCCCC(O)CC (stereo unspecified) [3-octanol] [listing 2 of 2 here] — lower, -45 °C
- CC(=O)OC1CCC2C3CCC4=CC(=O)CCC4(C)C3CCC12C (stereo unspecified) [3-oxoandrost-4-en-17-yl acetate] — higher, 140 °C
- OB(O)c1cccc(Oc2ccccc2)c1 [3-phenoxybenzeneboronic acid] — higher, 141 °C
- N#CCCc1ccccc1 [3-phenylpropionitrile] — lower, -2 °C
- Cc1cccc(C(C)(C)C)c1 [3-tert-butyltoluene] — lower, -41 °C
- CC(=O)c1ccc(C(F)(F)F)cc1 [4'-(trifluoromethyl)acetophenone] — lower, 32 °C
- CC(=O)Nc1ccc(Br)cc1OC(F)(F)F [4'-bromo-2'-(trifluoromethoxy)acetanilide] — higher, 136 °C
- CC(=O)Nc1ccc(Br)cc1C [4'-bromo-2'-methylacetanilide] — higher, 156 °C
- CC(=O)Nc1ccc(Cl)cc1C [4'-chloro-2'-methylacetanilide] — higher, 140 °C
- Clc1cc(-c2ccccn2)nc(-c2ccccn2)c1 [4'-chloro-2,2':6',2''-terpyridine] — higher, 150 °C
- CC(=O)c1ccc(Cl)cc1 [4'-chloroacetophenone] — lower, 19 °C
- COc1cc(C(C)=O)ccc1F [4'-fluoro-3'-methoxyacetophenone] — lower, 52 °C
- COc1cc(C(C)=O)ccc1O [4'-hydroxy-3'-methoxyacetophenone] — higher, 114 °C
- OC(c1ccc(Cl)cc1)(c1ccc(Cl)cc1)c1ccc(Cl)cc1 [4,4',4''-trichlorotrityl alcohol] — lower, 96 °C
- CC/C(=C(/CC)c1ccc(O)cc1)c1ccc(O)cc1 [4,4'-(3E)-Hex-3-ene-3,4-diyldiphenol] — higher, 170 °C
- ClC(Cl)=C(c1ccc(Cl)cc1)c1ccc(Cl)cc1 [4,4'-DDE] — lower, 89 °C
- Clc1ccc(C(c2ccc(Cl)cc2)C(Cl)(Cl)Cl)cc1 [4,4'-DDT] — the same, 110 °C
- Cc1ccc(CCc2ccc(C)cc2)cc1 [4,4'-Dimethylbibenzyl] — lower, 78 °C
- c1cc(-c2ccncc2)ccn1 [4,4'-bipyridine] — higher, 113 °C
- Cc1ccc(C)c(/C=C/c2ccc(-c3ccc(/C=C/c4cc(C)ccc4C)cc3)cc2)c1 [4,4'-bis(2,5-dimethylstyryl)biphenyl] — higher, 198 °C
- CC(=O)Oc1ccc(-c2ccc(OC(C)=O)cc2)cc1 [4,4'-diacetoxybiphenyl] — higher, 164 °C
- O=C(c1ccc(F)cc1)c1ccc(F)cc1 [4,4'-difluorobenzophenone] — lower, 108 °C
- Cc1ccc(-c2ccc(C)cc2)cc1 [4,4'-dimethylbiphenyl] — higher, 121 °C
